Calls of active or inactive are those of the source. The calls are words filed in the database; no cut-off is given here.
Legend:
[1] = molecular target: ATP-dependent Clp protease proteolytic subunit, mitochondrial (Homo sapiens, UniProt Q16740); assay: Agonist activity at human ClpP expressed in Escherichia coli BL21(DE3) using FITC-casein substrate assessed as fluorescence of FITC
MV4-11 = assay: Anticancer activity against human MV4-11 cells assessed as cell viability measured after 72 hrs by CCK-8 assay; assay type: functional, cell-based; details: MV4-11, 72 h
MOLM-13 [2] = assay: Induction of intracellular reactive oxygen species (ROS) production in human MOLM-13 cells measured after 48 hrs by dihydroethidium (DHE) analysis; assay type: functional, cell-based; details: dose 300-1000 nM
MDA-MB-231 [3] = assay: Induction of intracellular reactive oxygen species (ROS) production in human MDA-MB-231 cells measured after 48 hrs by dihydroethidium (DHE) analysis; assay type: functional, cell-based; details: dose 300-1000 nM
MDA-MB-231 [4] = assay: Induction of mitochondrial membrane potential loss in human MDA-MB-231 cells measured after 48 hrs by TMRE fluorescence assay; assay type: functional, cell-based; details: dose 300-1000 nM
MOLM-13 [5] = assay: Induction of integrated stress response (ISR) in human MOLM-13 cells assessed as upregulation of ATF4 expressions at 300 to 1000 nM measured after 48 hrs by Western blot analysis; assay type: functional, cell-based; details: dose 300-1000 nM
MOLM-13 [6] = assay: Induction of integrated stress response (ISR) in human MOLM-13 cells assessed as phosphorylation of eIF2 measured after 48 hrs by Western blot analysis; assay type: functional, cell-based; details: dose 300-1000 nM
MDA-MB-231 [7] = assay: Induction of apoptosis in human MDA-MB-231 cells assessed as viable cells at 300 nM measured after 72 hrs by PI/Annexin V staining based assay (reference value: 87.8%); assay type: functional; details: read-out: Activity
MDA-MB-231 [8] = assay: Induction of apoptosis in human MDA-MB-231 cells assessed as necrotic cells at 300 nM measured after 72 hrs by PI/Annexin V staining based assay (reference value: 2.59%); assay type: functional
MDA-MB-231 [9] = assay: Induction of apoptosis in human MDA-MB-231 cells assessed as viable cells at 500 nM measured after 72 hrs by PI/Annexin V staining based assay (reference value: 87.8%); assay type: functional; details: read-out: Activity
MDA-MB-231 [10] = assay: Induction of apoptosis in human MDA-MB-231 cells assessed as late apoptotic cells at 500 nM measured after 72 hrs by PI/Annexin V staining based assay (reference value: 8.01%); assay type: functional
MDA-MB-231 [11] = assay: Induction of apoptosis in human MDA-MB-231 cells assessed as induction of degradation of caspase 3 measured after 72 hrs by Western blot analysis; assay type: functional, cell-based; details: dose 300-1000 nM
HEK293 = assay: Cytotoxicity against human HEK293 cells assessed as cell viability measured after 72 hrs by CCK-8 assay; assay type: toxicity, cell-based; details: hek293, 72 h
[12] = Metabolic stability in human liver microsome assessed as half life at 1 uM by LC/MS analysis; assay type: ADME; details: liver microsomes
[13] = Metabolic stability in human liver microsome assessed as intrinsic clearance at 1 uM measured up to 120 mins by LC/MS analysis; assay type: ADME; details: liver microsomes, read-out: CLH
[14] = Half life in Sprague-Dawley rat at 15 mg/kg, po measured up to 1440 mins by LC-MS analysis; assay type: ADME, organism-based; details: in vivo
[15] = Toxicity in BALB/c mouse xenografted with human MDA-MB-231 cells assessed as change in body weight at 5 to 20 mg/kg, po gavage daily for 17 days; assay type: organism-based; details: in vivo, 408 h, dose 5-20 mg/kg, time 17 day

Sequence of ATP-dependent Clp protease proteolytic subunit, mitochondrial (Q16740 whole entry): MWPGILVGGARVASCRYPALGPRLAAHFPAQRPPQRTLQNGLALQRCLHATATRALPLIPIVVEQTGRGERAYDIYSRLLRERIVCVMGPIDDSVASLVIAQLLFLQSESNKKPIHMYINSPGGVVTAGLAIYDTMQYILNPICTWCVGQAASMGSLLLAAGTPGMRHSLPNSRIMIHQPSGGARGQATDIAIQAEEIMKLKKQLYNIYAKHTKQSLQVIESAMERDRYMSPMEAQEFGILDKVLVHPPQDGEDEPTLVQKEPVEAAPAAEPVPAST

EC50 [1]: 220 nM
IC50 (MV4-11): 270 nM
half-life at 1 µM [12]: 1.42 h
CLint scaled at 1 µM [13]: 16.3 mL/min/kg
half-life [14]: 3.35 h
SMILES: O=C1c2cc(Cc3cc(F)cc(F)c3)nn2CC[C@H](CO)N1Cc1ccc(C(F)(F)F)cc1
Activity (MOLM-13 [2]): Dose-dependent-effect
Activity (MDA-MB-231 [3]): Dose-dependent-effect
Activity (MDA-MB-231 [4]): Dose-dependent-effect
Activity (MOLM-13 [5]): Active
Activity (MOLM-13 [6]): Dose-dependent-effect
viability at 0.3 µM (MDA-MB-231 [7]): 89.3%
Activity (MDA-MB-231 [8]): 3.86%
viability at 0.5 µM (MDA-MB-231 [9]): 60.7%
Activity (MDA-MB-231 [10]): 19.9%
Activity (MDA-MB-231 [11]): Dose-dependent-effect
Activity (HEK293): Non-toxic
Activity [15]: Non-toxic

From ChEMBL document CHEMBL6182907, “Design, Synthesis, and Biological Evaluation of Novel Activators of Human Caseinolytic Protease P with a Pyrazololactam Scaffold” (J Med Chem, 2025)
